For one molecule, solubility results are on record in US8263060B2, “Fast degrading polymers” (Rutgers, The State University of New Jersey, priority 2005, dated 2012).

In brackets after ≈: the same amount, converted by molar mass.

The data set in a line: Solubility in PBS degradation media. The format is physicochemical. The following applies: aqueous buffer.

For orientation: solubility means the dissolved amount per volume that the medium holds. The low end stands for a poorly soluble substance, the high end for a readily soluble substance. Molecule `COc1cc(C(=O)O)cc(OC)c1O` [syringic acid] returned a solubility of 56 mg/mL (≈ 283 mM).
